{"source": "patent US6610729B1", "about": "“Hydroxamic acid derivatives and medicinal utilization thereof” (Mitsubishi Pharma Corporation, priority 1998, dated 2003)", "key": {"[1]": {"test_system": "release of TNF α from THP-1 cells", "assay": "Inhibitory activity of TNF α release from THP-1 cells (LPS, ELISA)", "type": "cell-based", "conditions": "3 hr, 37° C., TNF α by ELISA", "description": "The inhibitory effect of each compound (compounds of Examples 1, 2, 3, 6, 35, 39 and 44) on the release of TNF α from THP-1 cells which are monocyte cultured cells [see Nature 370, 218-220 (1994)] was investigated.\nThe THP-1 cells were suspended to a concentration of 1×10 ^6 cells/ml in RPMI1640 medium supplemented with 10% fetal calf serum (FCS) and dispensed by 100 μl. A 2 μg/ml LPS was prepared with RPMI1640 medium supplemented with 10% FCS. Each compound (dissolved in dimethyl sulfoxide) was diluted 500-fold with the LPS solution.\nThe diluted solutions of these compounds were added to the dispensed cell suspensions by 100 μl and allowed for 3 hr to react under the conditions of 37° C., 5% CO2. After the completion of the reaction, the reaction mixture was centrifuged and the culture supernatant was collected. The TNF α amount was quantitatively measured by ELISA (enzyme-linked immunosorbent assay). The TNF α release inhibitory effect by each compound was calculated from the proportion of released TNF α amount of the compound addition group relative to that of the compound non-addition group."}, "[2]": {"assay": "Solubility in saline (0.9% aqueous sodium chloride solution) at 25° C.", "type": "physicochemical", "conditions": "for solubility: saline or isotonic", "description": "The solubility of the Example compounds of the present invention in saline (0.9% aqueous sodium chloride solution) at 25° C. was measured."}, "[3]": {"test_system": "release of TNF α from LPS treated human whole blood", "assay": "Inhibitory activity of TNF α release from LPS treated human whole blood (ELISA)", "type": "cell-based", "conditions": "LPS treated human whole blood diluted 4-fold, 24 hr, 37° C., TNF α by ELISA", "description": "The inhibitory effect of each compound (compounds of Examples 2, 6, 7, 10, 11, 37, 147, 231 and 245) on the release of TNF α from LPS treated human whole blood [see: Lymphokine Res 8, 141-146 (1989)] was investigated.\nHuman whole blood was diluted 4-fold with RPMI1640 medium supplemented with 10% FCS. The diluted blood was dispensed to a 96 multi-well plate by 100 μl and equilibrated under the conditions of 37° C., 5% CO2. LPS (2 μg/ml) was prepared with RPMI1640 medium supplemented with 10% FCS and a culture broth prepared by dissolving each compound (dissolved in dimethyl sulfoxide) in the LPS solution was added by 100 μl/well (final concentrated of dimethyl sulfoxide 0.1%), which was followed by incubation for 24 hr (37° C., 5% CO2). After the incubation, the reaction mixture was centrifuged (1,500 rpm, 5 min). The culture supernatant (40 μl/well) was collected, and TNF α amount in the supernatant was quantitatively measured by ELISA. The TNF α release inhibitory effect by each compound was calculated from the proportion of release TNF α amount of the compound addition group relitive to that of the compound non-addition group."}}, "note": "Structures can show the parent of a compound that is named as a salt."}
{"smiles": "CC(C)C[C@@H](C(=O)N[C@@H](Cc1ccc(OCCN(C)C)cc1)C(=O)c1ccco1)C(CCCc1ccccc1)C(=O)NO", "note": "(single isomer, unassigned) [Example 44, 3(R)-[2-[4-(2-dimethylaminoethoxy)phenyl]-1(S)-(2-furyl)carbonyl]ethylcarbamoyl-5-methyl-2(R or S)-(3-phenylpropyl)hexanohydroxamic acid hydrochloride]", "values": [{"measurement": "IC50", "setting": "[1]", "value": 420, "unit": "nM"}]}
{"smiles": "CC(C)C[C@@H](C(=O)N[C@H](C(=O)c1ccc(OCCN(C)C)cc1)C(C)(C)C)C(CCCc1ccccc1)C(=O)NO.Cl", "note": "(single isomer, unassigned) [Example 88, 3(R)-[2,2-dimethyl-1(S)-[4-(2-dimethylaminoethoxy)benzoyl]]propylcarbamoyl-5-methyl-2(R or S)-(3-phenylpropyl)hexanohydroxamic acid hydrochloride]", "values": [{"measurement": "Solubility, saline", "setting": "[2]", "value": 5, "unit": "mg/mL"}]}
{"smiles": "CC(C)C[C@@H](C(=O)N[C@@H](Cc1ccccc1)C(=O)c1ccc(CO)o1)C(CN1C(=O)N(C)C(C)(C)C1=O)C(=O)NO", "note": "(single isomer, unassigned) [Example 245, 3(R)-[1(S)-[2-(5-Hydroxymethyl)furyl]carbonyl-2-phenyl]ethylcarbamoyl-5-methyl-2(R or S)-(2,5-dioxo-3,4,4-trimethyl-1-imidazolidinyl)methylhexanohydroxamic Acid]", "values": [{"measurement": "IC50", "setting": "[3]", "value": 3740, "unit": "nM"}]}
{"smiles": "CC(C)C[C@@H](C(=O)N[C@@H](Cc1ccc(S(=O)(=O)[O-])cc1)C(=O)c1ccco1)C(CN1Cc2ccccc2C1=O)C(=O)NO.[Na+]", "note": "(single isomer, unassigned) [Example 11, Sodium Salt of 3(R)-[1(S)-(2-Furyl)carbonyl-2-(4-sulfophenyl)ethylcarbamoyl]-5-methyl-2(R or S)-(1-oxoisoindolin-2-ylmethyl)hexanohydroxamic Acid]", "values": [{"measurement": "solubility", "setting": "[2]", "value": "> 20", "unit": "mg/mL"}, {"measurement": "IC50", "setting": "[3]", "value": 1730, "unit": "nM"}]}
{"smiles": "CC(C)C[C@@H](C(=O)N[C@@H](Cc1ccc(OCCN(C)C)cc1)C(=O)c1ccco1)C(CN1C(=O)N(C)C(C)(C)C1=O)C(=O)NO.Cl", "note": "(single isomer, unassigned) [Example 5, 3(R)-[2-[4-(2-Dimethylaminoethoxy)phenyl]-1(S)-(2-furyl)carbonyl]ethylcarbamoyl-5-methyl-2(R or S)-(2,5-dioxo-3,4,4-trimethyl-1-imidazolidinyl)methylhexanohydroxamic Acid Hydrochloride]", "values": [{"measurement": "solubility", "setting": "[2]", "value": "> 20", "unit": "mg/mL"}]}
{"smiles": "CC(C)C[C@@H](C(=O)N[C@@H](Cc1ccccc1)C(=O)c1ccc(OCCN2CCN(C)CC2)cc1)C(CN1C(=O)c2ccccc2C1=O)C(=O)NO", "note": "(single isomer, unassigned) [Example 1, 5-Methyl-3(R)-[1(S)-[4-[2-[1-(4-methyl)piperazinyl]ethoxy]benzoyl]-2-phenyl]ethylcarbamoyl-2(R or S)-phthalimidomethylhexanohydroxamic Acid Dihydrochloride]", "values": [{"measurement": "solubility", "setting": "[2]", "value": "> 10", "unit": "mg/mL"}, {"measurement": "IC50", "setting": "[1]; Homo sapiens", "value": 270, "unit": "nM"}]}
{"smiles": "CC(C)C[C@@H](C(=O)N[C@@H](Cc1ccccc1)C(=O)c1ccc(OCCN(C)C)cc1)C(CCCc1ccccc1)C(=O)NO.Cl", "note": "(single isomer, unassigned) [Example 35, 3(R)-[1(S)-[4-(2-Dimethylaminoethoxy)benzoyl]-2-phenyl]ethylcarbamoyl-5-methyl-2(R or S)-(3-phenylpropyl)hexanohydroxamic Acid Hydrochloride]", "values": [{"measurement": "Solubility, saline", "setting": "[2]", "value": ">20", "unit": "mg/mL"}, {"measurement": "IC50", "setting": "[1]", "value": 140, "unit": "nM"}]}
{"smiles": "CC(C)C[C@@H](C(=O)N[C@H](C(=O)c1ccc(OCCN(C)C)cc1)C(C)(C)C)C(CN1C(=O)N(C)C(C)(C)C1=O)C(=O)NO.Cl", "note": "(single isomer, unassigned) [Example 147, 3(R)-[2,2-Dimethyl-1(S)-[4-(2-dimethylaminoethoxy)benzoyl]]propylcarbamoyl-5-methyl-2(R or S)-(2,5-dioxo-3,4,4-trimethyl-1-imidazolidinyl)methylhexanohydroxamic Acid Hydrochloride]", "values": [{"measurement": "Solubility, saline", "setting": "[2]", "value": ">20", "unit": "mg/mL"}, {"measurement": "IC50", "setting": "[3]", "value": 2290, "unit": "nM"}]}
{"smiles": "CC(C)C[C@@H](C(=O)N[C@@H](Cc1ccc(OS(=O)(=O)[O-])cc1)C(=O)c1ccco1)C(CN1C(=O)N(C)C(C)(C)C1=O)C(=O)NO.[Na+]", "note": "(single isomer, unassigned) [Example 84, Sodium Salt of 3(R)-[1(S)-(2-Furyl)carbonyl-2-[4-(hydroxysulfonyloxy)phenyl]]ethylcarbamoyl-5-methyl-2(R or S)-(2,5-dioxo-3,4,4-trimethyl-1-imidazolidinyl)methylhexanohydroxamic Acid]", "values": [{"measurement": "Solubility, saline", "setting": "[2]", "value": ">20", "unit": "mg/mL"}]}
{"smiles": "CC(C)C[C@@H](C(=O)N[C@@H](Cc1ccc(S(=O)(=O)[O-])cc1)C(=O)c1ccco1)C(Cc1ccc2ccccc2c1)C(=O)NO.[Na+]", "note": "(single isomer, unassigned) [Example 7, Sodium Salt of 3(R)-[1(S)-(2-Furyl)carbonyl-2-(4-sulfophenyl)ethylcarbamoyl]-5-methyl-2(R or S)-(2-naphthylmethyl)hexanohydroxamic Acid]", "values": [{"measurement": "solubility", "setting": "[2]", "value": "> 20", "unit": "mg/mL"}, {"measurement": "IC50", "setting": "[3]", "value": 2460, "unit": "nM"}]}
{"smiles": "CC(C)C[C@@H](C(=O)N[C@@H](Cc1ccc(S(=O)(=O)[O-])cc1)C(=O)c1ccco1)C(Cc1ccccc1)C(=O)NO.[Na+]", "note": "(single isomer, unassigned) [Example 9, Sodium Salt of 2(R or S)-Benzyl-3(R)-[1(S)-(2-furyl)carbonyl-2-(4-sulfophenyl)ethylcarbamoyl]-5-methylhexanohydroxamic Acid]", "values": [{"measurement": "solubility", "setting": "[2]", "value": "> 20", "unit": "mg/mL"}]}
{"smiles": "CC(C)C[C@@H](C(=O)N[C@@H](Cc1ccc(S(=O)(=O)[O-])cc1)C(=O)c1ccco1)C(CN1C(=O)c2ccccc2C1=O)C(=O)NO.[Na+]", "note": "(single isomer, unassigned) [Example 10, Sodium Salt of 3(R)-[1(S)-(2-Furyl)carbonyl-2-(4-sulfophenyl)ethylcarbamoyl]-5-methyl-2(R or S)-phthalimidomethylhexanohydroxamic Acid]", "values": [{"measurement": "solubility", "setting": "[2]", "value": 10, "unit": "mg/mL"}, {"measurement": "IC50", "setting": "[3]", "value": 1700, "unit": "nM"}]}
{"smiles": "CC(C)C[C@@H](C(=O)N[C@@H](Cc1ccc(NC(=N)N)cc1)C(=O)c1ccco1)C(CN1C(=O)c2ccccc2C1=O)C(=O)NO", "note": "(single isomer, unassigned) [Example 3, 3(R)-[1(S)-(2-Furyl)carbonyl-2-(4-guanidinophenyl)]ethylcarbamoyl-5-methyl-2(R or S)-phthalimidomethylhexanohydroxamic Acid Hydrochloride]", "values": [{"measurement": "IC50", "setting": "[1]; Homo sapiens", "value": 190, "unit": "nM"}]}
{"smiles": "CC(C)C[C@@H](C(=O)N[C@@H](Cc1ccccc1)C(=O)c1ccc(OCCN(C)C)cc1)C(CN1C(=O)N(C)C(C)(C)C1=O)C(=O)NO.Cl", "note": "(single isomer, unassigned) [Example 37, 3(R)-[1(S)-[4-(2-Dimethylaminoethoxy)benzoyl]-2-phenyl]ethylcarbamoyl-5-methyl-2(R or S)-(2,5-dioxo-3,4,4-trimethyl-1-imidazolidinyl)methylhexanohydroxamic Acid Hydrochloride]", "values": [{"measurement": "Solubility, saline", "setting": "[2]", "value": ">20", "unit": "mg/mL"}, {"measurement": "IC50", "setting": "[3]", "value": 3470, "unit": "nM"}]}
{"smiles": "CC(C)C[C@@H](C(=O)N[C@@H](Cc1ccc(S(=O)(=O)[O-])cc1)C(=O)c1ccco1)C(Cc1cccc2ccccc12)C(=O)NO.[Na+]", "note": "(single isomer, unassigned) [Example 8, Sodium Salt of 3(R)-[1(S)-(2-Furyl)carbonyl-2-(4-sulfophenyl)ethylcarbamoyl]-5-methyl-2(R or S)-(1-naphthylmethyl)hexanohydroxamic Acid]", "values": [{"measurement": "solubility", "setting": "[2]", "value": "> 20", "unit": "mg/mL"}]}
